Measured values: ChEMBL document CHEMBL1201862, “PubChem BioAssay data set” (2004)
Active and inactive are the calls of the source.

Experiments:
[1] = HPDE-C7 pancreatic duct cell viability loss – fluorescence, HTS (AID 430); type: functional, cell-based; settings: Homo sapiens
[2] = viability loss of HPDE-C7K cells – cell-based, fluorescence, HTS, primary screen (AID 431); type: functional; settings: Homo sapiens
Cytochrome P450 2C9 = Cytochrome P450 2C9 (Homo sapiens, UniProt P11712)
[3] = A Cell Based Secondary Assay To Explore Cytotoxicity of Compounds that Sensitize Mycobacterium Tuberculosis to Beta-Lactam Antibiotics.; type: functional
[4] = Trypanosoma cruzi growth suppression in host cells – NIH3T3 host cells, beta-gal luminescence, confirmation (AID 2044); type: functional, cell-based;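 note: intracellular parasites grown in NIH/3T3 mouse fibroblasts as host cells; luminescent beta-galactosidase reporter signal from transgenic T. cruzi replicating inside host cells; inhibitors lower the luminescence signal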
[5] = NIH3T3 cell viability loss – ATP luminescence, mouse fibroblasts, counter-screen, dose response (AID 2010); type: functional, cell-based;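 note: cells exposed to compound for about 90 hours before reading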
[6] = M. tuberculosis H37Rv growth inhibitors, H37Rv strain (AID 1626); type: functional
[7] = viability loss in Vero cells – cytotoxicity control for Vif-APOBEC3G degradation inhibitor project, dose response (AID 1117358); type: functional; settings: Vero
[8] = target: Voltage-gated inwardly rectifying potassium channel KCNH2 (Homo sapiens, UniProt Q12809); assay: concentration-dependent hERG rescue from blockers – cell-based, thallium flux, dose response (AID 2121); type: ADME
Protein RecA = target: T1, Protein RecA (Mycobacterium tuberculosis, UniProt P9WHJ3); assay: Fluorescence Cell-Free Homogeneous Dose Retest to Identify Inhibitors of RecA-Intein Splicing Activity. [Related pubchem assays (depositor defined):AID2097, AID2223, AID489010, AID492950]; type: functional
T1 sequence (P9WHJ3 whole entry): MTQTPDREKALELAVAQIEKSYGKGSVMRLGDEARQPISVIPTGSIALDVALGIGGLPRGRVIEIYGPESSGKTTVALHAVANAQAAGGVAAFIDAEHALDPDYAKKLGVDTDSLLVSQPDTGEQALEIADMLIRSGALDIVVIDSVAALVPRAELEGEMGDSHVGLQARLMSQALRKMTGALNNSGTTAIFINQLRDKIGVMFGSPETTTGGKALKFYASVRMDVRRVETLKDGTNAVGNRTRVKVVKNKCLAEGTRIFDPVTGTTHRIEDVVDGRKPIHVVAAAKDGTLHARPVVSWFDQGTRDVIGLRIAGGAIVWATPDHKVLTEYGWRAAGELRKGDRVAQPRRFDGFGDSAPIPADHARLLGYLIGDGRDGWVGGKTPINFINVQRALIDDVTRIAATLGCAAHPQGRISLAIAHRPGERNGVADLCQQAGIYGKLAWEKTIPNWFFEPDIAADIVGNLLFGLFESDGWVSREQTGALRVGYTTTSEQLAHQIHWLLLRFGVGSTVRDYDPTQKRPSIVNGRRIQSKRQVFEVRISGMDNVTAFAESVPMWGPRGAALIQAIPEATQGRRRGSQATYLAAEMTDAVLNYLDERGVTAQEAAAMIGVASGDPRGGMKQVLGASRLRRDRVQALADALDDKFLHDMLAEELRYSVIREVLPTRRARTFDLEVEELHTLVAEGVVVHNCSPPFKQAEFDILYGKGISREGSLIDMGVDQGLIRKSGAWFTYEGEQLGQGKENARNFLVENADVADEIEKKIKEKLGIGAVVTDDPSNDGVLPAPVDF

[9] = target: T2, Replicative DNA helicase DnaB (Mycobacterium tuberculosis, UniProt P9WMR3); assay: DnaB intein splicing inhibitors, dose response, biochemical, cell-free fluorescence (AID 449749); type: functional
T2 sequence (P9WMR3 whole entry): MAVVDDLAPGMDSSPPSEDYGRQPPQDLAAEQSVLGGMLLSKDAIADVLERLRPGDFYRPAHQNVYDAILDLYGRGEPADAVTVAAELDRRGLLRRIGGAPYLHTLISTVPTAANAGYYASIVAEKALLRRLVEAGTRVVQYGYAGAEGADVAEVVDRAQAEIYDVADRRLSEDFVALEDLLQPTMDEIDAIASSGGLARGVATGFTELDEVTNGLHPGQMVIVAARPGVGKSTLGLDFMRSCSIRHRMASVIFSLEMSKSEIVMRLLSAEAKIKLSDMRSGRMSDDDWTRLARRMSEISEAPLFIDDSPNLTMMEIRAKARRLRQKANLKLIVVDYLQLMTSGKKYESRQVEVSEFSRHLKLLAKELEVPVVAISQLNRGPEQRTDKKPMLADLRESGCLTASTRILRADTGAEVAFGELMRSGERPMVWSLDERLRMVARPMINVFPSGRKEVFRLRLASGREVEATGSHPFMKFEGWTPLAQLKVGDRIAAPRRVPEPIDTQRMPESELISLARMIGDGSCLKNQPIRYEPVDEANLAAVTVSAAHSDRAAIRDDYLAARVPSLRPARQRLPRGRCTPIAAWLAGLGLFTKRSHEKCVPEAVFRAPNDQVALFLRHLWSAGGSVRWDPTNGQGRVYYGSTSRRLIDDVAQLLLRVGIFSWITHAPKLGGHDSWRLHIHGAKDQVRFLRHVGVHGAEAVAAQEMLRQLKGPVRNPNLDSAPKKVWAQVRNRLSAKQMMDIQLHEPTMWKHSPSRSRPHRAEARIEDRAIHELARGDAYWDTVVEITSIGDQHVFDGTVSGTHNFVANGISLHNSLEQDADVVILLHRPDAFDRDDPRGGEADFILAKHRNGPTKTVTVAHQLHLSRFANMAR

[10] = target: T3, Oxysterols receptor LXR-beta (Homo sapiens, UniProt P55055); assay: LXR agonists, Gal4 luciferase reporter, dose response, counter-screen for ssDAF-12 agonist project, cell-based, luminescence, HEK293, S. stercoralis campaign (AID 720737); type: functional; settings: read-out: IC50 (the source's name)
T3 sequence (P55055 whole entry): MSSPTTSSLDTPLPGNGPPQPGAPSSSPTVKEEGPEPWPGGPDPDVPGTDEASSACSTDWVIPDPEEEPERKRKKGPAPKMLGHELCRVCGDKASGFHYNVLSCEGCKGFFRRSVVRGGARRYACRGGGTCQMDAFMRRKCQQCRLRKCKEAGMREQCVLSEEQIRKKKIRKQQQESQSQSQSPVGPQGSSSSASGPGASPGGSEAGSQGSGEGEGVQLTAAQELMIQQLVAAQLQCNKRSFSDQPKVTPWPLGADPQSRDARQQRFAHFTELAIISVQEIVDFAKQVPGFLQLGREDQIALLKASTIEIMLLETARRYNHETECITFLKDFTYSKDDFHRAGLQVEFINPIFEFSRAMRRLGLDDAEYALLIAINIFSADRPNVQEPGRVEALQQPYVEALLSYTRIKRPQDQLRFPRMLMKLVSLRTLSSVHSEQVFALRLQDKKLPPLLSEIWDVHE

[11] = Luminescence-based cell-based high throughput dose response assay to identify activators of the DAF-12 from the parasite S. stercoralis (ssDAF-12).; type: functional
[12] = target: T4, Rac GTPase-activating protein 1 (Homo sapiens, UniProt Q9H0H5); assay: blockers of MgcRacGAP-driven Rac1 GTP hydrolysis – biochemical, ADP Hunter fluorescence, primary and confirmatory, confirmation (AID 624330); type: functional
T4 sequence (Q9H0H5 whole entry): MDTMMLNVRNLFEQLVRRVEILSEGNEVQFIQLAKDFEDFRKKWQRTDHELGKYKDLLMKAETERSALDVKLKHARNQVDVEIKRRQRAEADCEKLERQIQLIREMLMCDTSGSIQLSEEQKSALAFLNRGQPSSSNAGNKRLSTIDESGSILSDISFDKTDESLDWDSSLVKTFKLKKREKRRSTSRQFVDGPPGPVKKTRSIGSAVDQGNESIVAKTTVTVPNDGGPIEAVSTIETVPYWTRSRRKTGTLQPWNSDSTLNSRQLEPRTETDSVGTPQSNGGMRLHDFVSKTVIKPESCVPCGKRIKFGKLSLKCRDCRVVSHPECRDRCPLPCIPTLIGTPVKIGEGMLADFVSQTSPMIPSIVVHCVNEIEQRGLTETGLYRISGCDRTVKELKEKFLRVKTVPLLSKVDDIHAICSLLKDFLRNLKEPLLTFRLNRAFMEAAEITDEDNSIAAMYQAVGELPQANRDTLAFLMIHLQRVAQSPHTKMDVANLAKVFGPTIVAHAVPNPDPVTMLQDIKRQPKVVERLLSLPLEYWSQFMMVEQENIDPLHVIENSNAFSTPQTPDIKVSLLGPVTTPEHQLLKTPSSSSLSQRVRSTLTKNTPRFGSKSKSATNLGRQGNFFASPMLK

[13] = target: FAD-linked sulfhydryl oxidase ALR (Homo sapiens, UniProt P55789); assay: ALR-catalysed DTT oxidation blockers – biochemical, H2O2 detection, luminescence, cherry-pick, dose response (AID 493248)
Caspase-6 = target: T5, Caspase-6 (Homo sapiens, UniProt P55212); assay: inhibition of CASP6 peptide cleavage – biochemical, VEID-R110 fluorescence, cherry-pick, dose response (AID 720632)
T5 sequence (P55212 whole entry): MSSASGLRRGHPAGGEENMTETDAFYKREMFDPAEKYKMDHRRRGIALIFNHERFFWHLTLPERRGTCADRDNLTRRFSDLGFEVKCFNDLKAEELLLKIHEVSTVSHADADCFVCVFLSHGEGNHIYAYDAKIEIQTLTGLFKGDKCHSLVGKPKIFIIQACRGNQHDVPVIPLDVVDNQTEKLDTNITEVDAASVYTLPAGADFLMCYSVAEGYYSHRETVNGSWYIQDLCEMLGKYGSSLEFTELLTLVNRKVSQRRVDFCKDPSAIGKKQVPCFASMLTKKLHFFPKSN

[14] = P. falciparum Dd2 growth inhibitors, dose response, SYBR Green, cherry-picked samples (AID 1159567); type: functional, cell-based
[15] = toxicity to human hepatoma HepG2 cells – cell-based, cherry-picked samples, cytotoxicity control, dose response (AID 1159577); type: functional
[16] = NIH-3T3 fibroblast cytotoxicity, dose response, cytotoxicity control, cell-based, fluorescence, Alamar Blue, secondary assay (AID 2327); type: functional;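 note: NIH-3T3 mouse fibroblasts cultured with fluconazole at 8 µg/mL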
[17] = fluconazole-exposed Candida albicans growth modulators – fluorescence, retest, confirmation (AID 2467); type: functional, cell-based
[18] = tested on: Streptococcus sp. 'group A'; assay: Streptococcus pyogenes SK(-)GAS viability under kanamycin – luminescence, BacTiterGlo, confirmation, counter-screen for streptokinase expression inhibitor project, dose response (AID 1900); type: functional, organism-based
Streptococcus = assay: GAS UMAA2166 growth inhibition – luminescence, BacTiterGlo, counter-screen for streptokinase expression inhibitor project, dose response (AID 1915); type: functional, organism-based;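 note: potency for reduction of bacterial viability or growth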

Sequence of Voltage-gated inwardly rectifying potassium channel KCNH2 (Q12809 whole entry): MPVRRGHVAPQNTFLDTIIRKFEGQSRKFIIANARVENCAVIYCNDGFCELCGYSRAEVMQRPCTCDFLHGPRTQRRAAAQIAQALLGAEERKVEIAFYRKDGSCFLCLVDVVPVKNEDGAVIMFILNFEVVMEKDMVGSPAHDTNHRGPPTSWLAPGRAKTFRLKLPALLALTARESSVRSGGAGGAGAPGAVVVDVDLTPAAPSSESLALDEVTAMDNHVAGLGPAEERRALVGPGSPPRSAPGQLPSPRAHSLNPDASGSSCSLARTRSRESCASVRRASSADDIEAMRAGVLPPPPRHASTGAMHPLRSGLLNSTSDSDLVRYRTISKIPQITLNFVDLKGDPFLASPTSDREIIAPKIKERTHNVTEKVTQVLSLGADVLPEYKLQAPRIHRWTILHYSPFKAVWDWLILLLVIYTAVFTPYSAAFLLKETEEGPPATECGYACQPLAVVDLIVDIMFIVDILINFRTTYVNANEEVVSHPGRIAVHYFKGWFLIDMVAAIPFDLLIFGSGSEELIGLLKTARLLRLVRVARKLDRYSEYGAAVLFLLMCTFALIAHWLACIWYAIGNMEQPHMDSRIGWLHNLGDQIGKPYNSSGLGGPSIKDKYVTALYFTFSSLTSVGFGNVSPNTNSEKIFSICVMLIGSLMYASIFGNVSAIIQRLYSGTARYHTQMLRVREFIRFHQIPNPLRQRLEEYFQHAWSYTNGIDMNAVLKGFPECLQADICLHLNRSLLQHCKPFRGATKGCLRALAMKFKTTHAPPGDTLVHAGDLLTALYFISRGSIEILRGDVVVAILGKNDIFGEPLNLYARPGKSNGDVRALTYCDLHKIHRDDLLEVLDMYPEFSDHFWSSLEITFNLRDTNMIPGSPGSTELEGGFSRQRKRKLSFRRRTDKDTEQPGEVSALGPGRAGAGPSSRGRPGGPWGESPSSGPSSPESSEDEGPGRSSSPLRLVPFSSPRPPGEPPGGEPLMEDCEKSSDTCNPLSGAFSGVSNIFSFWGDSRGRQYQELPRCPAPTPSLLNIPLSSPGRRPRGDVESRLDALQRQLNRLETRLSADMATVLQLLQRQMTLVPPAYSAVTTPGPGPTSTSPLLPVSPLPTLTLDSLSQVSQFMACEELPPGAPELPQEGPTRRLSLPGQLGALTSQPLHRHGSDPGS
Sequence of FAD-linked sulfhydryl oxidase ALR (P55789 whole entry): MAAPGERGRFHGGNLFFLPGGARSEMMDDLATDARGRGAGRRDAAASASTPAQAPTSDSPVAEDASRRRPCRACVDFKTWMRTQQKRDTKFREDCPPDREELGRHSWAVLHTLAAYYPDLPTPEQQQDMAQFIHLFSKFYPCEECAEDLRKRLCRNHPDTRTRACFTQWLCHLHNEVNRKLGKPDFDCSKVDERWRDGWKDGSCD
Sequence of Cytochrome P450 2C9 (P11712 whole entry): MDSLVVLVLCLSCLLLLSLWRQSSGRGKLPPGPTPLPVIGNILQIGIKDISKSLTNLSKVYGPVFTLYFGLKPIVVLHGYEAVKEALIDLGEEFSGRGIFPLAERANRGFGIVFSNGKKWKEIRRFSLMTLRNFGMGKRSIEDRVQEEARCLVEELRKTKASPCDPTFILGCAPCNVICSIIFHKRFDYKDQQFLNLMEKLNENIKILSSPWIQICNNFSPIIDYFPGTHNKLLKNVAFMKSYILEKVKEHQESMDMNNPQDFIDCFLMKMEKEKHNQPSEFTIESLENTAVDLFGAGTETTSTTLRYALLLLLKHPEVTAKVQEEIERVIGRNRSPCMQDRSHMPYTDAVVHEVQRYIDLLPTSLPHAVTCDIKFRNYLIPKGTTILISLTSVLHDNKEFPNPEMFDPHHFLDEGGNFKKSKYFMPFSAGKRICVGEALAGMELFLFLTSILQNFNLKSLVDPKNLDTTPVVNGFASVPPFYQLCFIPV

CS(=O)(=O)N(Cc1cc2ccccc2nc1O)C1CCCCC1
EC50 [1]: > 20 µM (not active)
EC50 [2]: > 20 µM (not active)
AC50 (Cytochrome P450 2C9): 39.8 µM (inconclusive)

O=C(CCS(=O)(=O)c1ccc(F)cc1)Nc1nnc(-c2cccs2)o1
CC50 [3]: 24.3 µM (active)

O=C(CCC1CCCN(Cc2cccc(Cl)c2)C1)NCc1ccccc1F (stereo unspecified)
EC50 (cells): 0.045 µM (active)
EC50 [4]: < 0.1 µM (active)
EC50 [5]: > 30 µM (not active)

Cc1nc(SCc2ccccc2F)c2oc3ccccc3c2n1
IC50 [6]: > 100 µM (active)

c1ccc(-c2cc(-c3nnc4n3N=C(c3ccc5ccccc5c3)CS4)n[nH]2)cc1
EC50 [4]: 1.63 µM (active)
CC50 [7]: > 40 µM (active)
EC50 [5]: 7.45 µM (active)

Cc1ccc(NC(S)=NNc2ncc(C(F)(F)F)cc2Cl)cc1
CC50 [7]: > 40 µM (active)

C=C(C)CN=C(S)NN=C1c2ccccc2-c2ccccc21
EC50 [8]: 0.95 µM (active)

CCOc1ccc(N2C(=O)/C(=C\c3ccc(OC)c(O)c3)S(=O)(=O)C2c2cccc([N+](=O)[O-])c2)cc1 (stereo unspecified)
EC50 (Protein RecA): 6.38 µM (active)
IC50 [6]: > 100 µM (active)
AC50 [9]: 10.2 µM (active)

CCOc1ccc(NC(=O)CSc2ccccc2N)cc1
IC50 [6]: > 100 µM (active)

Cc1ccc2nc(N(CCCN(C)C)C(=O)c3ccc(S(=O)(=O)N4CCOCC4)cc3)sc2c1
EC50 (cells): 0.007 µM (active)
EC50 [4]: < 0.1 µM (active)
EC50 [5]: 10.8 µM (active)

Cc1cc(C)c(N/C=C2/C(=O)N(c3nccs3)C(=O)c3ccccc32)c(C)c1
CC50 [3]: > 40 µM (active)

Cc1nn(C)c(C)c1NC(=O)CCCSc1nc(-c2ccco2)cc(C(F)(F)F)n1
CC50 [3]: > 40 µM (active)

COc1cc(-c2nnc(O)o2)cc(OC)c1OC
CC50 [7]: > 40 µM (active)

CC1=NN(C(=O)CCc2ccc3c(c2)OCO3)C(O)(C(F)(F)F)C1 (stereo unspecified)
EC50 [10]: > 67.5 µM (inactive)
IC50 [11]: > 67.5 µM (inactive)

CC(=O)N1CCN(c2ccc(N)cc2)CC1
IC50 [12]: 16.2 µM (active)
AC50 [13]: 1.06 µM (active)
AC50 (Caspase-6): 11.1 µM (active)

c1ccc(Cc2c(-c3ccco3)nc3c4ccccc4ccn23)cc1
EC50 [10]: > 67.5 µM (inactive)
IC50 [11]: > 67.5 µM (inactive)

Cc1ccc(/C=N/Nc2ccc(C(=O)O)cc2)o1
EC50 [8]: 11 µM (active)
AC50 [13]: 2.79 µM (active)

Cc1ccc(-c2ccc([C@@H]3[C@H](CO)N4CCCCN(S(=O)(=O)c5ccccc5C)C[C@@H]34)cc2)cc1
AC50 [14]: 0.589 µM (active)
AC50 [15]: 11 µM (active)

CCC(=O)N1[C@H](CO)[C@H](c2ccc(C3=CCCC3)cc2)[C@H]1CNC1CCCC1
AC50 [14]: 5.63 µM (active)
AC50 [15]: > 42 µM (inactive)

CC(C)(C)c1ccc(C(=O)CC(=O)c2cc(Cl)ccc2O)cc1
EC50 [16]: 136 µM (active)
EC50 [8]: 6.61 µM (active)
EC50 [17]: 1.9 µM (active)
EC50 [18]: 0.192 µM (active)
EC50 (Streptococcus): 2.68 µM (active)
